Positions of bridges follow the written chain, without caps; N, C: chain ends. Non-standard residues stand in square brackets, D forms with d. Residues, ends and D or L forms follow the SMILES beside them. Bip = N[C@@H](Cc1ccc(-c2ccccc2)cc1)C(=O)O; NMeF = CN[C@@H](Cc1ccccc1)C(=O)O; 3Pal = N[C@@H](Cc1cccnc1)C(=O)O; NMeA = CN[C@@H](C)C(=O)O; Dab = NCC[C@H](N)C(=O)O
Target: T1, human PD-1 (Jurkat-PD-1 cells) / PE-labeled human PD-L1-Ig (Homo sapiens, UniProt Q15116)
T1 construct: expressed in transfected cells; host or cells: Jurkat cell line over-expressing human PD-1
T1 sequence (Q15116 25-288): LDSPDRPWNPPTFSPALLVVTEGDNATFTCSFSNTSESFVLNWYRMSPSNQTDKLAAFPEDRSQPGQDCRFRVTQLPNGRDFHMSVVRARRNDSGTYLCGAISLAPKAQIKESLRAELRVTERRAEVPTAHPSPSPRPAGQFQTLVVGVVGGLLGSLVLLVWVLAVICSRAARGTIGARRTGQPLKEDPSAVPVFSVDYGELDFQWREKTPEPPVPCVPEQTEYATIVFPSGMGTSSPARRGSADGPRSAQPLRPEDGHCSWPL
Assay: Jurkat-PD-1 Cell Binding High-Content Screening Assay (CBA); Jurkat hPD1-PDL1 assay
Conditions: Jurkat cell line over-expressing human PD-1; PE-labeled PD-L1-Ig 20 nM final; compound incubated 2 hours at 37° C.; read-out: Jurkat HPD1-PDL1 IC50
Summary of the method: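 Cell binding by imaging: Jurkat line stably over-expressing human PD-1, compound pre-exposure 2 h at 37° C, PE-conjugated PD-L1-Ig 20 nM final, medium DMEM containing 10% FCS.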

| IC50 | Compound |
| --- | --- |
| 60 nM | CC(C)C[C@@H]1NC(=O)[C@H](CCN)NC(=O)[C@H](Cc2ccccc2)N(C)C(=O)[C@H](C)N(C)C(=O)[C@H](CCCNC(=N)N)NC(=O)[C@H](Cc2ccc(-c3ccccc3)cc2)NC(=O)[C@H](C(C)C)NC(=O)[C@H](Cc2c[nH]c3ccccc23)NC(=O)[C@H](CC(=O)O)NC(=O)[C@H](Cc2ccc(O)cc2)NC(=O)[C@H](Cc2ccccc2)NC(=O)CSC[C@@H](C(=O)N[C@@H](C)C(N)=O)NC(=O)[C@H](CO)NC(=O)[C@H](C(C)C)NC1=O [Example 1304] ({CH2CO}-FYDWV[Bip]R[NMeA][NMeF][Dab]LVSCA-NH2; thioether N-14) |
| 60 nM | CC(C)C[C@@H]1NC(=O)CSC[C@@H](C(=O)N[C@@H](C)C(N)=O)NC(=O)[C@H](CO)NC(=O)[C@H](C(C)C)NC(=O)[C@H](CC(C)C)NC(=O)[C@H](CCN)NC(=O)[C@H](Cc2ccccc2)N(C)C(=O)[C@H](C)N(C)C(=O)[C@H](CCCNC(=N)N)NC(=O)[C@H](Cc2ccc(-c3ccccc3)cc2)NC(=O)[C@H](C(C)C)NC(=O)[C@H](Cc2c[nH]c3ccccc23)NC(=O)[C@H](CC(=O)O)NC(=O)[C@H](Cc2ccc(O)cc2)NC1=O [Example 1305] ({CH2CO}-LYDWV[Bip]R[NMeA][NMeF][Dab]LVSCA-NH2; thioether N-14) |
| 460 nM | CC(C)C[C@@H]1NC(=O)[C@H](CCN)NC(=O)[C@H](Cc2ccccc2)N(C)C(=O)[C@H](C)N(C)C(=O)[C@H](CCCNC(=N)N)NC(=O)[C@H](Cc2ccc(-c3ccccc3)cc2)NC(=O)[C@H](C(C)C)NC(=O)[C@H](Cc2c[nH]c3ccccc23)NC(=O)[C@H](CC(=O)O)NC(=O)[C@H](Cc2ccc(O)cc2)NC(=O)[C@H](Cc2cccnc2)NC(=O)CSC[C@@H](C(=O)N[C@@H](C)C(N)=O)NC(=O)[C@H](CO)NC(=O)[C@H](C(C)C)NC1=O [Example 1306] ({CH2CO}-[3Pal]YDWV[Bip]R[NMeA][NMeF][Dab]LVSCA-NH2; thioether N-14) |
| 170 nM | CC(C)C[C@@H]1NC(=O)[C@H](CCN)NC(=O)[C@H](Cc2ccccc2)N(C)C(=O)[C@H](C)N(C)C(=O)[C@H](CCCNC(=N)N)NC(=O)[C@H](Cc2ccc(-c3ccccc3)cc2)NC(=O)[C@H](C(C)C)NC(=O)[C@H](Cc2c[nH]c3ccccc23)NC(=O)[C@H](CC(=O)O)NC(=O)[C@H](Cc2ccc(O)cc2)NC(=O)[C@H](CCC(N)=O)NC(=O)CSC[C@@H](C(=O)N[C@@H](C)C(N)=O)NC(=O)[C@H](CO)NC(=O)[C@H](C(C)C)NC1=O [Example 1307] ({CH2CO}-QYDWV[Bip]R[NMeA][NMeF][Dab]LVSCA-NH2; thioether N-14) |
| 410 nM | CC(C)C[C@@H]1NC(=O)CSC[C@@H](C(=O)N[C@@H](C)C(N)=O)NC(=O)[C@H](CO)NC(=O)[C@H](C(C)C)NC(=O)[C@H](CC(C)C)NC(=O)[C@H](CCCNC(=N)N)NC(=O)[C@H](Cc2ccccc2)N(C)C(=O)[C@H](C)N(C)C(=O)[C@H](CCCNC(=N)N)NC(=O)[C@H](Cc2ccc(-c3ccccc3)cc2)NC(=O)[C@H](C(C)C)NC(=O)[C@H](Cc2c[nH]c3ccccc23)NC(=O)[C@H](CC(=O)O)NC(=O)[C@H](Cc2ccc(O)cc2)NC1=O [Example 1308] ({CH2CO}-LYDWV[Bip]R[NMeA][NMeF]RLVSCA-NH2; thioether N-14) |
| 340 nM | CC(C)C[C@@H]1NC(=O)[C@H](CCN)NC(=O)[C@H](Cc2ccccc2)N(C)C(=O)[C@H](C)N(C)C(=O)[C@H](CCCNC(=N)N)NC(=O)[C@H](Cc2ccc(-c3ccccc3)cc2)NC(=O)[C@H](C(C)C)NC(=O)[C@H](Cc2c[nH]c3ccccc23)NC(=O)[C@H](CC(=O)O)NC(=O)[C@H](Cc2ccc(O)cc2)NC(=O)[C@H](CCC(N)=O)NC(=O)CSC[C@@H](C(=O)NCC(N)=O)NC(=O)[C@H](CO)NC(=O)[C@H](C(C)C)NC1=O [Example 1309] ({CH2CO}-QYDWV[Bip]R[NMeA][NMeF][Dab]LVSCG-NH2; thioether N-14) |
